From US9439430B2, “Method of controlling resistant harmful plants” (priority 2012, dated 2016)

What was measured:
[1] = tested on: TTTTT (all resistant and sensitive biotypes); test: Greenhouse test, PO application, mean over all resistant and sensitive biotypes; format: in vivo; conditions: (A) 50, (B) 20, mixture 50 + 20 g of AS/ha; for TTTTT resistant mean (effect): mean of resistant biotypes (n = 17 or n = 15); for TTTTT sensitive mean (effect): mean of sensitive biotypes (n = 11)
Excerpt: (§1) The 1:1 mixture of the two soil types was used specifically for cultivating small-seeded dicotyledonous weed since the standard field soil on its own tends to silt up, which may have an adverse effect on the emergence of small-seeded weeds. The resistances mentioned in the tables were confirmed beforehand in standard monitoring experiments. Nevertheless, the origins examined may have additional, hitherto unconfirmed resistances to various mechanisms of action.
(§2) The pots were then cultivated in a greenhouse (12-16 h light, temperature day 20-22° C., night 15-18° C.) until the time of application. The pots were treated at various BBCH stages of the seeds/plants on a laboratory track sprayer with spray liquors comprising the compositions according to the invention, mixtures of the prior art or the individual components. Application of the active compounds or active compound combinations and wetting agents formulated as WG, WP, EC or otherwise was carried out at the appropriate growth stages of the plants. The amount of water used for spray application was 100-600 l/ha. After the treatment, the plants were returned to the greenhouses and fertilized and watered as required. The pots were cultivated in a greenhouse (12-16 h light, temperature day 20-22° C., night 15-18° C.).
(§3) 3 weeks after the application, the foliar effect was evaluated on a scale of 0-100%:
(§4) 0%=no noticeable effect compared to untreated plants
(§5) 100%=full effect compared to untreated plants
(§6) The following abbreviations were used: • BBCH the BBCH code provides information about the morphological development stage of a plant. Officially, the abbreviation denotes the Biologische Bundesanstalt, Bundessortenamt and CHemische Industrie [Federal Biological Institute for Agriculture and Forestry, Federal Office for Crop Plant Varieties, Chemical Industry]. The range of BBCH 00-10 denotes the germination stages of the seeds until surface penetration. The range of BBCH 11-25 denotes the leaf development stages until stocking (corresponds to the number of tillers or side-shoots). • PE pre-emergence soil application; BBCH of the seeds/plants 00-10 • PO post-emergence application on the green parts of the plants; BBCH of the plants 11-25 • IU soil loamy silt—standard field soil • l/ha liters per hectare • S sensitive—the weed populations are sensitive to the active compounds tested • TSR target-site resistance. The weed populations comprise biotypes having a site-of-action-specific resistance, i.e. the binding site at the site of action is modified as a result of natural mutations in the gene sequence so that the active compounds are no longer able to bind, or bind in an unsatisfactory manner, and are therefore no longer able to act. • NTR non-target-site herbicide resistance; this is differentiated, inter alia, into EMR (Enhanced Metabolic Resistance) (the weed populations comprise biotypes having metabolic resistance, i.e. the plants are capable of metabolizing the active compounds more quickly via enzyme complexes, i.e. the active compounds are degraded more quickly in the plant), into reduced penetration into the plant, reduced translocation in the plant, accelerated excretion. […]

KCHSC [2] = test: Greenhouse test, post-emergence (PO) application, foliar effect; format: in vivo, Kochia scoparia; conditions: (A) 50, (B) 20, mixture 50 + 20 g of AS/ha, 3 weeks after application
Excerpt: as §1, §2, §3, §4, §5, §6

AMAPA = test: as above; format: in vivo, Amaranthus palmeri; conditions: AMAPA resistant - group B (TSR), C1 (TSR) and G (NTR), (A) 50, (B) 20, mixture 50 + 20 g of AS/ha, 3 weeks after application
Excerpt: as §1, §2, §3, §4, §5, §6

EPHHL [3] = test: Greenhouse test, pre-emergence (PE) soil application; format: in vivo, Euphorbia heterophylla; design: key: % effect: 0 = no effect, 100 = full effect vs untreated
Excerpt: as §1, §2, §3, §4, §5, §6

EPHHL [4] = test: Greenhouse test, post-emergence (PO) application, foliar effect; format: in vivo, Euphorbia heterophylla; conditions: (A) 50, (B) 20, mixture 50 + 20 g of AS/ha, 3 weeks after application
Excerpt: as §1, §2, §3, §4, §5, §6

BIDSU = test: Greenhouse test, pre-emergence (PE) soil application; format: in vivo, Bidens subalternans
Excerpt: as §1, §2, §3, §4, §5, §6

CHEAL [5] = test: as above; format: in vivo, Chenopodium album; design: key: % effect: 0 = no effect, 100 = full effect vs untreated
Excerpt: as §1, §2, §3, §4, §5, §6

ERIBO = test: Greenhouse test, post-emergence (PO) application, foliar effect; format: in vivo, Erigeron bonariensis; conditions: (A) 50, (B) 20, mixture 50 + 20 g of AS/ha, 3 weeks after application
Excerpt: as §1, §2, §3, §4, §5, §6

KCHSC [6] = test: Greenhouse test, pre-emergence (PE) soil application; format: in vivo, Kochia scoparia; design: key: % effect: 0 = no effect, 100 = full effect vs untreated
Excerpt: as §1, §2, §3, §4, §5, §6

CHEAL [7] = test: Greenhouse test, post-emergence (PO) application, foliar effect; format: in vivo, Chenopodium album; conditions: (A) 50, (B) 20, mixture 50 + 20 g of AS/ha, 3 weeks after application
Excerpt: as §1, §2, §3, §4, §5, §6

ALOMY = test: Greenhouse test, pre-emergence (PE) soil application; format: in vivo, Alopecurus myosuroides
Excerpt: as §1, §2, §3, §4, §5, §6

ERICA = test: as above; format: in vivo, Erigeron canadensis; design: key: % effect: 0 = no effect, 100 = full effect vs untreated
Excerpt: as §1, §2, §3, §4, §5, §6

BRODI [8] = test: Greenhouse test, post-emergence (PO) application, foliar effect; format: in vivo, Bromus diformis; conditions: (A) 50, (B) 20, mixture 50 + 20 g of AS/ha, 3 weeks after application
Excerpt: as §1, §2, §3, §4, §5, §6

LOLSS = test: Greenhouse test, pre-emergence (PE) soil application; format: in vivo, Lolium spp.; design: key: % effect: 0 = no effect, 100 = full effect vs untreated plants
Excerpt: as §1, §2, §3, §4, §5, §6

BRODI [9] = test: as above; format: in vivo, Bromus diformis; design: key: % effect: 0 = no effect, 100 = full effect vs untreated
Excerpt: as §1, §2, §3, §4, §5, §6

[10] = tested on: TTTTT (all resistant and sensitive biotypes); test: Greenhouse test, PE application, mean over all resistant and sensitive biotypes; format: in vivo; conditions: (A) 12.5, (B) 20, mixture 12.5 + 20 g of AS/ha; for TTTTT resistant mean (effect): mean of resistant biotypes (n = 16); for TTTTT sensitive mean (effect): mean of sensitive biotypes (n = 11)
Excerpt: as §1, §2, §3, §4, §5, §6

[11] = KCHSC resistant - group B (TSR)
[12] = EPHHL resistant - group B (TSR) and G (NTR)
[13] = EPHHL resistant - group B (TSR)
[14] = ERIBO resistant - group B (NA) and G (NTR)
[15] = CHEAL resistant - group B (TSR), C1 (NA) and G (NTR)
[16] = BRODI resistant - group A (TSR), B (NTR) and G (NTR)
[17] = group (B) compound alone, 20 g of AS/ha

Row | Compound | TTTTT resistant mean (effect) [1] [%] | TTTTT sensitive mean (effect) [1] [%] | foliar effect (KCHSC [2]; [11]) [%] | foliar effect (KCHSC [2]; KCHSC sensitive) [%] | foliar effect (AMAPA) [%] | foliar effect (EPHHL [4]; [12]) [%] | foliar effect (EPHHL [4]; [13]) [%] | foliar effect (EPHHL [4]; EPHHL sensitive) [%] | foliar effect (ERIBO; [14]) [%] | foliar effect (ERIBO; ERIBO sensitive) [%] | foliar effect (CHEAL [7]; [15]) [%] | foliar effect (CHEAL [7]; CHEAL sensitive) [%] | foliar effect (BRODI [8]; [16]) [%] | foliar effect (BRODI [8]; BRODI sensitive) [%] | TTTTT resistant mean (effect) [10] [%] | TTTTT sensitive mean (effect) [10] [%] | effect on EPHHL resistant - group B (TSR) (EPHHL [3]; [17]) | effect on EPHHL resistant - group B (TSR) and G (NTR) (EPHHL [3]; [17]) | effect on EPHHL sensitive (EPHHL [3]; [17]) | effect on BIDSU sensitive (BIDSU; [17]) | also measured
1 | Cc1ccc2c(c1)[C@H](Nc1nc(N)nc(C(C)F)n1)[C@@H](C)C2 (stereo partly drawn) [(A), indaziflam] | 53 | 58 | 30 | 30 | 50 | 50 | 55 | 60 | 50 | 50 | 70 | 70 | 65 | 70 | 52 | 68 | – | – | – | – | effect on EPHHL resistant - group B (TSR) (EPHHL [3]; (A) alone, 12.5 g of AS/ha): 0; effect on EPHHL resistant - group B (TSR) and G (NTR) (EPHHL [3]; (A) alone, 12.5 g of AS/ha): 0; effect on EPHHL sensitive (EPHHL [3]; (A) alone, 12.5 g of AS/ha): 50; effect on BIDSU sensitive (BIDSU; (A) alone, 12.5 g of AS/ha): 50; effect on CHEAL resistant - group B (TSR), C1 (NA) and G (NTR) (CHEAL [5]; (A) alone, 12.5 g of AS/ha): 65; effect on CHEAL sensitive (CHEAL [5]; (A) alone, 12.5 g of AS/ha): 70; effect on KCHSC resistant - group B (TSR) (KCHSC [6]; (A) alone, 12.5 g of AS/ha): 40; effect on KCHSC sensitive (KCHSC [6]; (A) alone, 12.5 g of AS/ha): 40; effect on ALOMY sensitive (ALOMY; (A) alone, 12.5 g of AS/ha): 85; effect on ERICA resistant - group B (NA) and G (NTR) (ERICA; (A) alone, 12.5 g of AS/ha): 60; effect on ERICA sensitive (ERICA; (A) alone, 12.5 g of AS/ha): 70; effect on LOLSS resistant - group G (NTR) (LOLSS; (A) alone, 12.5 g of AS/ha): 75; effect on LOLSS resistant group A (TSR, NTR), B (NTR) and C2 (NA) (LOLSS; (A) alone, 12.5 g of AS/ha): 50; effect on LOLSS resistant group A (TSR, NTR), B (TSR, NTR) and C2 (NA) (LOLSS; (A) alone, 12.5 g of AS/ha): 50; effect on LOLSS sensitive (LOLSS; (A) alone, 12.5 g of AS/ha): 80; effect on BRODI resistant - group A (TSR), B (NTR) and G (NTR) (BRODI [9]; (A) alone, 12.5 g of AS/ha): 70; effect on BRODI sensitive (BRODI [9]; (A) alone, 12.5 g of AS/ha): 75
2 | COc1cc(OC)nc(NC(=O)NS(=O)(=O)c2ncccc2C(F)(F)F)n1 [(B1), flazasulfuron] | 40 | 87 | 0 | 90 | 40 | 40 | 30 | 80 | 50 | 90 | 70 | 80 | 75 | 100 | 32 | 75 | 0 | 20 | 40 | 80 | effect on CHEAL resistant - group B (TSR), C1 (NA) and G (NTR) (CHEAL [5]; [17]): 60; effect on CHEAL sensitive (CHEAL [5]; [17]): 88; effect on KCHSC resistant - group B (TSR) (KCHSC [6]; [17]): 0; effect on KCHSC sensitive (KCHSC [6]; [17]): 70; effect on ALOMY sensitive (ALOMY; [17]): 100; effect on ERICA resistant - group B (NA) and G (NTR) (ERICA; [17]): 0; effect on ERICA sensitive (ERICA; [17]): 70; effect on LOLSS resistant - group G (NTR) (LOLSS; [17]): 80; effect on LOLSS resistant group A (TSR, NTR), B (NTR) and C2 (NA) (LOLSS; [17]): 70; effect on LOLSS resistant group A (TSR, NTR), B (TSR, NTR) and C2 (NA) (LOLSS; [17]): 70; effect on LOLSS sensitive (LOLSS; [17]): 70; effect on BRODI resistant - group A (TSR), B (NTR) and G (NTR) (BRODI [9]; [17]): 70; effect on BRODI sensitive (BRODI [9]; [17]): 80
3 | COc1cc(OC)nc(NC(=O)NS(=O)(=O)c2cc(NC=O)ccc2C(=O)N(C)C)n1 [(B2), foramsulfuron] | 34 | 74 | 0 | 90 | 40 | 40 | 30 | 80 | 40 | 50 | 70 | 70 | 75 | 100 | 22 | 73 | 0 | 0 | 30 | 30 | effect on CHEAL resistant - group B (TSR), C1 (NA) and G (NTR) (CHEAL [5]; [17]): 40; effect on CHEAL sensitive (CHEAL [5]; [17]): 80; effect on KCHSC resistant - group B (TSR) (KCHSC [6]; [17]): 0; effect on KCHSC sensitive (KCHSC [6]; [17]): 60; effect on ALOMY sensitive (ALOMY; [17]): 90; effect on ERICA resistant - group B (NA) and G (NTR) (ERICA; [17]): 0; effect on ERICA sensitive (ERICA; [17]): 100; effect on LOLSS resistant - group G (NTR) (LOLSS; [17]): 65; effect on LOLSS resistant group A (TSR, NTR), B (NTR) and C2 (NA) (LOLSS; [17]): 80; effect on LOLSS resistant group A (TSR, NTR), B (TSR, NTR) and C2 (NA) (LOLSS; [17]): 60; effect on LOLSS sensitive (LOLSS; [17]): 78; effect on BRODI resistant - group A (TSR), B (NTR) and G (NTR) (BRODI [9]; [17]): 70; effect on BRODI sensitive (BRODI [9]; [17]): 75
